Assay results published in patent US9676859B2, “In vitro generation of dendritic cells by exposure to an anti-CSF1-R antibody” (TRANSGENE SA, priority 2012, dated 2017).

Experiments:
[1] = tested on: differentiating macrophages; assay: Human macrophage differentiation assay: microscopical observation and cell counts of day-6 cultures (cytotoxicity); type: cell-based; conditions: for Microscopical observation of day-6 cultures (cytotoxicity), compared with untreated cells: all doses evaluated (mAbs 0.1, 1, 10 μg/ml, F(ab′)2 0.066, 0.66, 6.6 μg/ml), all donors
Text: Cells were counted following a 6-day culture of monocyte, or precursors thereof, s with GM-CSF and CSF-1, in the presence or absence of anti-CD115 mAbs or F(ab′)2 or with GW2580. Controls included cultures treated with rituximab or rituximab F(ab′)2, or without any added compound.
Buffy coats were provided by the Etablissement Français du Sang (EFS, Strasbourg). Peripheral blood mononucleated cells (PBMC) were obtained by centrifugation on a ficoll gradient. Monocytes were purified by immunomagnetic cell sorting, using CD14-antibody-coated beads (Miltenyii). […] Monocytes were differentiated for 6 days in 48-well plates (3×10^5 cells/well) in RPMI-Glutamax™ medium supplemented with 10% heat inactivated fetal calf serum and 1% tri-antibiotic mixture (penicillin, streptomycin, neomycin). GM-CSF (10 ng/ml) was added in the cell culture medium from day 0 to day 3. H27K15, other antibodies or internal control GW2580 (LC Labs) were added at day 0. On day 3 post-isolation, monocytes were washed with PBS and further cultivated in medium supplemented with CSF-1 (10 ng/ml) and GM-CSF (2 ng/ml), in the presence or absence of antibodies or GW2580. On day 6, supernatants were collected and stored at −20° C. Cells were detached from the plastic and pools of triplicates were analyzed by IC/FC (immunocytochemistry/flow cytometry) for cell sizes and expression of FcγR and CD86. Cytokines and chemokines were quantified in the culture supernatants by multiplex (Bioplex, Bio-Rad) or by ELISA.
Three different doses of mab H27K15 or isotype control rituximab (0.1; 1 or 10 μg/ml) were added to the culture medium at the beginning of the culture and again 3 days later. F(ab′)2 generated from H27K15 or from rituximab were tested in parallel at equivalent molar concentrations.
Cell viability was analyzed at day 6 by counting 5 microscope fields in each well of the plate (one in the center of the well and four fields at mid-distance between the center and the side of the well).

IL-12p70 = IL-12p70 titration in day-6 macrophage culture supernatants; type: cell-based, human; conditions: day-6 supernatants, 3 blood donors, GW2580 1 μM; for IL-12p70 secretion: mAbs 1 μg/ml, detection limit 11 pg/ml
Experimental: (§1) IL-12p70 and IL-10 were titrated in the culture supernatants from day-6 macrophages differentiated in the presence of mAb H27K15 (1 μg/ml), GW2580 (1 μM) or their respective negative controls rituximab or no treatment. Left panel: IL-12p70 and IL-10 levels […] in macrophage cultures from 3 blood donors. Right: IL-12p70 […]/IL-10 […] ratios were calculated for each blood donor and each culture condition. In samples where IL-12p70 was undetectable (below the detection limit of 11 pg/m)l, its level was arbitrarily set at 1 pg/ml for the calculation of IL-12p70/IL-10 ratios.
(§2) Buffy coats were provided by the Etablissement Français du Sang (EFS, Strasbourg). Peripheral blood mononucleated cells (PBMC) were obtained by centrifugation on a ficoll gradient. Monocytes were purified by immunomagnetic cell sorting, using CD14-antibody-coated beads (Miltenyii). Enriched monocyte suspensions were more than 95% pure. Monocytes were differentiated for 6 days in 48-well plates (3×10^5 cells/well) in RPMI-Glutamax™ medium supplemented with 10% heat inactivated fetal calf serum and 1% tri-antibiotic mixture (penicillin, streptomycin, neomycin). GM-CSF (10 ng/ml) was added in the cell culture medium from day 0 to day 3. H27K15, other antibodies or internal control GW2580 (LC Labs) were added at day 0. On day 3 post-isolation, monocytes were washed with PBS and further cultivated in medium supplemented with CSF-1 (10 ng/ml) and GM-CSF (2 ng/ml), in the presence or absence of antibodies or GW2580. On day 6, supernatants were collected and stored at −20° C. Cells were detached from the plastic and pools of triplicates were analyzed by IC/FC (immunocytochemistry/flow cytometry) for cell sizes and expression of FcγR and CD86. Cytokines and chemokines were quantified in the culture supernatants by multiplex (Bioplex, Bio-Rad) or by ELISA.
IL-12p70 and IL-10 were titrated in day-6 culture supernatants.

CD64 (FcγRI) = assay: Surface expression of CD64 on day-6 macrophages by IC/FC; type: cell-based, human; conditions: GW2580 1 μM vs no treatment
Experimental: Macrophages obtained following a 6-day culture of monocyte, or precursors thereof from 3 different blood donors with GM-CSF and CSF-1 were analyzed by IC/FC for surface expression of CD64. Upper panels: CD64 staining in cultures from donor 1 treated with monoclonal antibody H27K15 (left, bold line) or with GW2580 (right, bold line) or their respective negative controls rituximab (left, thin line) or no treatment (right, thin line). Lower panel: Medians of fluorescence intensities in macrophage cultures treated with test compounds at 10, 1 or 0.1 μg/ml* were compared with those in the corresponding negative controls: H27K15 vs rituximab, H27K15-derived F(ab′)2 vs rituximab-derived F(ab′)2, mAbs 2-4A5 or 9-4D2 vs rat IgG1, GW2580 vs no treatment. Percentages of reduction in CD64 expression were calculated as: 100−[100×Median fluorescence intensity with test compound/Median fluorescence intensity with control]. […]
Buffy coats were provided by the Etablissement Français du Sang (EFS, Strasbourg). […] Cells were detached from the plastic and pools of triplicates were analyzed by IC/FC (immunocytochemistry/flow cytometry) for cell sizes and expression of FcγR and CD86. Cytokines and chemokines were quantified in the culture supernatants by multiplex (Bioplex, Bio-Rad) or by ELISA. […]

CD86 = assay: Induction of CD86bright SSClow macrophage population by IC/FC; type: cell-based, human; conditions: day-6 macrophages; mAb 10, 1, 0.1 μg/ml, F(ab′)2 equimolar, GW2580 1 μM
Experimental: Upper panels: Dot plots showing CD86 staining (x-axis) and side scatter (SSC, y-axis) of macrophages from donor 3 differentiated for 6 days in the presence of H27K15 (left) or negative control rituximab (right). A gate was set on the CD86^bright SSC^low cell population induced by H27K15. Lower panel: Percentages of CD86^bright SSC^low cells with the test compounds at 10, 1 or 0.1 μg/ml* were compared with those in the corresponding negative controls: H27K15 vs rituximab, H27K15-derived F(ab′)2 vs rituximab-derived F(ab′)2, GW2580 vs no treatment. Percentages of increase in the CD86^bright SSC^low cell population were calculated as: 100×percentage of CD86^bright SSC^low cells with test compound/percentage of CD86^bright SSC^low cells with control. Shown are the mean percentages of increase in the CD86^bright SSC^low cell population from the 3 blood donors. *except for F(ab′)2: 6.6; 0.6; and 0.06 μg/ml.
(§3) Buffy coats were provided by the Etablissement Français du Sang (EFS, Strasbourg). Peripheral blood mononucleated cells (PBMC) were obtained by centrifugation on a ficoll gradient. […] Cells were detached from the plastic and pools of triplicates were analyzed by IC/FC (immunocytochemistry/flow cytometry) for cell sizes and expression of FcγR and CD86. Cytokines and chemokines were quantified in the culture supernatants by multiplex (Bioplex, Bio-Rad) or by ELISA. […]

IL-10 = IL-10 titration in day-6 macrophage culture supernatants; type: cell-based, human; conditions: day-6 supernatants; GW2580 1 μM
Experimental: as §1
as §3, with “gradient. Monocytes were purified by immunomagnetic cell sorting, using CD14-antibody-coated beads (Miltenyii). Enriched monocyte suspensions were more than 95% pure.” for “gradient.”

MCP-1/CCL2 = MCP-1/CCL2 titration in day-6 macrophage culture supernatants; type: cell-based, human; conditions: day-6 supernatants; H27K15 1 μg/ml, GW2580 1 μM
Experimental: MCP-1 and IL-6 were titrated in the culture supernatants from day-6 macrophages differentiated in the presence of mAb H27K15 (1 μg/ml), GW2580 (1 μM) or their respective negative controls rituximab or no treatment. Percentages of reduction in MCP-1 (upper panel) or in IL-6 production (lower panel) were calculated for the 3 blood donors as: 100−[100×cytokine concentration with test compound (pg/ml)/cytokine concentration with control (pg/ml)].
as §2, with “H27K15, other antibodies or internal control GW2580 (LC Labs) were added at day 0. On day 3 post-isolation, monocytes were washed with PBS and further cultivated in medium supplemented with CSF-1 (10 ng/ml) and GM-CSF (2 ng/ml), in the presence or absence of antibodies or GW2580. On day 6, supernatants were collected and stored at −20° C.” left out, “ELISA. […]” for “ELISA.”

MMP-9 = MMP-9 ELISA in day-6 supernatants of monocytes cultured with GM-CSF and CSF-1; type: cell-based, human; conditions: mAb 0.1, 1, 10 μg/ml, F(ab)′2 equimolar, effect in 2 out of 3 donors
Experimental: Monocytes isolated from 3 different blood donors were differentiated for 6 days in the presence of GM-CSF and CSF-1, with or without mAb H27K15, Rituximab or GW2580. MAb H27K15 or Rituximab (0.1, 1 or 10 μg/ml) or equimolar concentrations of F(ab)′2 derived from both mAbs were added to the cultures. MMP-9 was titrated by ELISA (R&D Systems) in day-6 culture supernatants.
CD14^+ monocytes from 3 different donors were allowed to differentiate in the presence of both GM-CSF and CSF-1, known to induce macrophage differentiation towards respectively the M1- and M2-types. MAb H27K15 or Rituximab (used as a negative control) were added to the cultures at 0.1, 1 or 10 μg/ml. Equimolar concentrations of F(ab)′2 derived from both mAbs were assayed in parallel. The tyrosine kinase inhibitor GW2580, previously shown to inhibit the CSF-1-dependent proliferation of human monocytes and the differentiation of murine macrophages in vitro was tested in the same assay. After 6 days of culture, MMP-9 concentrations were measured in the supernatants by ELISA (FIG. 6). […] Thus, mAb H27K15 is capable of decreasing MMP-9 secretion by differentiating M2 macrophages.

[2] = tested on: CD163+ M2-type macrophages; assay: Flow cytometry of CD163-positive M2-type macrophages in day-6 cultures; type: cell-based, human; conditions: day-6 cultures with GM-CSF and CSF-1; 3 donors
Experimental: Cells obtained after 6-day culture with GM-CSF and CSF-1 were harvested and incubated for 20 min at 4° C. with PBS containing human IgG Fc fragments to saturate Fc receptors. Fluorochrome-conjugated mAbs (anti-CD14-PerCP-Cy5.5, anti-CD163-PE, anti-CD206-APC, anti-CD1a-FITC, BD Biosciences) were then incubated with each sample for 20 min at 4° C. FCM analysis was performed using a FACS LSR-II (BD biosciences) with the DIVA software. Data from 3 different blood donors are presented.
The surface expression of CD163 was analyzed by flow cytometry in day-6 macrophages derived from human monocytes cultured with GM-CSF and CSF-1. […] Culture with mAb H27K15 inhibited the differentiation of the CD163^+ macrophage population in all 3 donors tested. In the presence of 1 μg/ml H27K15, percentages of CD163-positive cells decreased from 2.5 to 4 folds compared with control cultures treated with rituximab.

Molecule | Microscopical observation of day-6 cultures (cytotoxicity), compared with untreated cells [1] | IL-12p70 secretion (IL-12p70) | macrophage number remained at day 6 compared with untreated cultures ([1]; 1 μM) | Microscopical observation of day-6 cultures (cytotoxicity) ([1]; 1 μM, all blood donors) | surface expression of CD64 (CD64 (FcγRI)) | Induction of CD86bright SSClow cell sub-population (CD86) | IL-12p70/IL-10 ratios (IL-12p70; H27K15 1 μg/ml, vs rituximab or no treatment) | IL-10 production (IL-10) | production of the chemokine MCP-1/CCL2 (MCP-1/CCL2) | MMP-9 production (MMP-9) | differentiation of the CD163+ macrophage population [2]
Rituximab: human IgG1 isotype / negative control, obtained from Roche | no obvious differences | did not produce any detectable IL-12p70 | – | – | – | – | – | – | – | – | –
Rituximab F(ab′)2: F(ab′)2 produced by pepsine digestion of rituximab, negative control | no obvious differences | – | – | – | – | – | – | – | – | – | –
COc1ccc(COc2ccc(Cc3cnc(N)nc3N)cc2OC)cc1 [GW2580, reference compound] | – | not detectable | approximately 70% | relative cytotoxicity | drastically reduced | had appeared | increased | inhibition | almost totally suppressed | dose-dependent decrease | same effect in only 2/3 donors
